According to patent US9108930B2, “N1- and N2-carbamoyl-1,2,3-triazole serine hydrolase inhibitors and methods” (The Scripps Research Institute, priority 2011, dated 2015):
Entries after “also recorded” stand apart in the source; their conditions may differ.

Assays:
DAGLA = target: T1, DAGLA (Mus musculus, UniProt Q6WQJ1); experiment: Activity against recombinant DAGLA; format: biochemical
T1 construct: Full-length cDNAs encoding serine hydrolases were purchased from Open Biosystems; V5; host or cells: HEK293T
T1 sequence (Q6WQJ1 whole entry): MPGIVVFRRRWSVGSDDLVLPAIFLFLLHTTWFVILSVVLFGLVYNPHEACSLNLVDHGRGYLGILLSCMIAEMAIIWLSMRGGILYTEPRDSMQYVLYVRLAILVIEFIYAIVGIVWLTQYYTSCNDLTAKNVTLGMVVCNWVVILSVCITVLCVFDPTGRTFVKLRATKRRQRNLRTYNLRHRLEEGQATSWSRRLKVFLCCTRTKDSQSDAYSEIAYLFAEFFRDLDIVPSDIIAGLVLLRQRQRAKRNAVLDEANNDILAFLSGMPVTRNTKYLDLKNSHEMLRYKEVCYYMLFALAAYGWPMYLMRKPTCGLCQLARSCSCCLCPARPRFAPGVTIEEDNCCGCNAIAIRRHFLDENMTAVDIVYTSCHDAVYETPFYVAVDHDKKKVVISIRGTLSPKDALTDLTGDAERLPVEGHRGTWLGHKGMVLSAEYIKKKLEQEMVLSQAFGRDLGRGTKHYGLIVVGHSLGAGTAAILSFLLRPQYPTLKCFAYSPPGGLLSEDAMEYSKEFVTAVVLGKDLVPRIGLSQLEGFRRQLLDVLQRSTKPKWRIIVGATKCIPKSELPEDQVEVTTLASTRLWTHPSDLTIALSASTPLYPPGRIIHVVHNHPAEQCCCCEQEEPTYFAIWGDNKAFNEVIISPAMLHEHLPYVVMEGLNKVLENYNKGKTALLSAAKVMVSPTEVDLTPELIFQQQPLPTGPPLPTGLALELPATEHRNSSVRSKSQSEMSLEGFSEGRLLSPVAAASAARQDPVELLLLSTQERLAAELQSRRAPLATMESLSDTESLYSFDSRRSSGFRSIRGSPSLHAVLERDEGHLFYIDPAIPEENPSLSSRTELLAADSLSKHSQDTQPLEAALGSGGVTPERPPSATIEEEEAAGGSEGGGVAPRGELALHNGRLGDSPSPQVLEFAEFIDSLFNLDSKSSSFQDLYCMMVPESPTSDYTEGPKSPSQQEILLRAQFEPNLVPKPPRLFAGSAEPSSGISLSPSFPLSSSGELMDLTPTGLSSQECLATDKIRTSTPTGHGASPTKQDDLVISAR

[1] = system: serine hydrolases in mouse brain proteome; experiment: Selectivity profile by competitive ABPP (mouse brain proteome), DAGL series; format: biochemical
endogenous DAGLB = target: T2, endogenous DAGLB (Mus musculus, UniProt Q91WC9); experiment: HT01 labeling of endogenous DAGLB in mouse brain and peritoneal macrophage proteomes; format: biochemical; conditions: 2 μM pretreatment
T2 construct: from tissue; host or cells: mouse brain and peritoneal macrophages

peritoneal macrophages = experiment: Metabolomics of thioglycolate-elicited peritoneal macrophages from treated mice; format: in vivo, mouse; conditions: 5 mg/kg, 4 hours, i.p.
Method: Mice were treated with KT109, KT172 or KT195 (5 mg/kg, 4 hours, i.p.) to evaluate whether blockade of DAGLB in peritoneal macrophages would result in metabolic effects similar to those observed in Neuro2A cells. Thioglycolate-elicited peritoneal macrophages were harvested, and the cells were subjected to metabolomics studies. […] All the metabolic effects observed in pharmacological studies were recapitulated using Daglb^−/− mice, providing genetic evidence that the changes were indeed DAGLB-mediated.
Metabolites were quantified by either selected reaction monitoring (SRM) of each metabolite using an Agilent G6410B Triple-Quad instrument or untargeted metabolomic analysis (substrate assays) using an Agilent 1100 series LC-MSD SL instrument. […] For analysis of diacylglycerols (DAGs) a Luna C5 column (50 mm×4.60 mm with 5 μm diameter particles) from Phenomenex was used. Mobile phase A was made of 95:5 v/v H2O:MeOH, and mobile phase B was composed of 60:35:5 v/v/v i-PrOH:MeOH:H2O. Ammonium hydroxide (0.1%) and formic acid (0.1%) was included to assist in ion formation in negative and positive ionization modes, respectively. For analysis of DAGs, 5 mM ammonium formate was also used in addition to 0.1% formic acid to assist in positive ionization and NH4+ adduct formation. For metabolite measurements, cells were resuspended in 1 mL of a 1% NaCl solution and added to 3 mL of a 2:1 v/v CHCl3:MeOH doped with 1 nmol of the following internal standards: d5-2-arachidonoylglycerol (2-AG), d8-arachidonic acid (AA), and d8-1-stearoyl-2-arachidonoylglycerol (SAG). The mixture was vortexed and then centrifuged (1,400×g, 3 min). The organic layer was removed, CHCl3 was added until the final volume was again 4 ml, and the extraction was repeated. The combined organic extracts were dried under a stream of N2 and resolubilized in 2:1 v/v CHCl3:MeOH (120 μl). 30 μL of resolubilized lipids were injected for positive mode (MAGs and DAGs) and negative mode (free fatty acids and eicosanoids) measurements.
The following parameters (MS) were used to measure the indicated metabolites by SRM (precursor ion, product ion, collision energy in V, polarity): C20:4 MAG or 2-AG (379, 287, 8, positive), d5-2-AG (384, 287, 5, positive), C18:0/C20:4 DAG or SAG (662, 341, 15, positive), d8-SAG (671, 671, 0, positive), C18:1/C20:4 DAG (660, 341, 15, positive), C16:0/C20:4 DAG (634, 341, 15, positive), C14:0/C20:4 DAG (606, 341, 15, positive), arachidonic acid or AA (303, 303, 0, negative), d8-AA (311, 267, 5, negative), PGE2 (351, 271, 10, negative), and PGD2 (351, 271, 10, negative). MS analysis was performed with an electrospray ionization source with the following parameters: drying gas temperature=350° C., drying gas flow rate=11 L/min, and the nebulizer pressure=35 psi. Prostaglandin SRM parameters were based on previously reported methods and transitions. Metabolites targeted by SRM were quantified by measuring the area under the peak in comparison with the internal standards. For metabolites where isotopic internal standards were not used, external standard curves with the internal standard versus metabolite standard were generated. In DAGL substrate assays, formation of the hydrolysis product, 2-AG was followed by measuring the area under the peak for 2-AG in comparison to the 1-monopentadecanoin standard ion.

DAGLB [2] = target: T3, DAGLB (Mus musculus, UniProt Q91WC9); experiment: ABPP-SILAC in Neuro2A cells; conditions: about 4 hours; 25 nM KT172, 50 nM KT109
T3 sequence (Q91WC9 1-669): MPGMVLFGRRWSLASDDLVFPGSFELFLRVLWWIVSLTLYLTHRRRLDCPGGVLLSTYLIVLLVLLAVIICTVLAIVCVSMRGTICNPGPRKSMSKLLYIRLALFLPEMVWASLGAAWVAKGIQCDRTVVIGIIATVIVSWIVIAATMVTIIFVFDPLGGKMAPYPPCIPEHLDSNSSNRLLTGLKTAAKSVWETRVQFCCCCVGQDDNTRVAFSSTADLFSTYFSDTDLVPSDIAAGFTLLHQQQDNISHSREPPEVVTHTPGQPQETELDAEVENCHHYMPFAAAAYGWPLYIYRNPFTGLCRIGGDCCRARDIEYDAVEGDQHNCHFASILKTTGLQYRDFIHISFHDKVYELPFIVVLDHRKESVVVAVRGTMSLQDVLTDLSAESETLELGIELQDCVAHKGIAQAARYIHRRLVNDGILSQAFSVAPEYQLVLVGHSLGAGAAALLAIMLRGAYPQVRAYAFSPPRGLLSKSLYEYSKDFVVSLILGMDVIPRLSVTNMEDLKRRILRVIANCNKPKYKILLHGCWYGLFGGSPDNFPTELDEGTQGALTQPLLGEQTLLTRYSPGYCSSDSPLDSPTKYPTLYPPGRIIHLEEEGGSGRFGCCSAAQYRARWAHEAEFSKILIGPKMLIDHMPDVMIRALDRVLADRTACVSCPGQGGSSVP

DAGLB [3] = target: T3, DAGLB; experiment: ABPP-MudPIT of peritoneal macrophages from treated mice; conditions: in vivo
[4] = system: serine hydrolases in the peritoneal macrophage proteome; experiment: ABPP-MudPIT of peritoneal macrophages from treated mice, off-targets; conditions: mouse, in vivo
DAGLB [5] = target: T3, DAGLB; experiment: In situ inhibition in Neuro2A cells, competitive ABPP with HT-01; format: cell-based; parameters: from tissue; host or cells: thioglycolate-elicited peritoneal macrophages of treated mice; conditions: 4 hours
Method: For gel-based competitive ABPP studies, proteomes from cells treated in situ with inhibitor for 4 h at 37° C. at the indicated concentrations (n=3) were labeled with HT-01 (1 μM) for 30 min at 37° C. After quenching, SDS-PAGE, and in-gel visualization, the percentage of enzyme activity remaining was determined by measuring the integrated optical intensity of the bands using IMAGER® software. For LC-MS substrate assays, the percentage of enzyme activity remaining was determined by comparing the specific activity (amount of 2-AG formed per min per mg of proteome) of inhibitor with DMSO-treated samples. The IC50 values were determined from a dose-response curve generated using GraphPad PRISM® software.

DAGLB [6] = target: T3, DAGLB; experiment: In vivo DAGLB inactivation in peritoneal macrophages, gel-based competitive ABPP using HT01; parameters: from tissue; host or cells: thioglycolate-elicited peritoneal macrophages of treated mice; conditions: i.p.
DAGLB [7] = target: T3, DAGLB; experiment: Gel-based ABPP assay against recombinant DAGLB (HEK293T-DAGLB lysates); format: biochemical; parameters: Full-length cDNAs encoding serine hydrolases were purchased from Open Biosystems; V5; host or cells: HEK293T; conditions: recombinant

reduction of HT01 probe labeling of the DAGLB band (endogenous DAGLB): > 80%
DAGLB activity blocked (DAGLB [2]): approximately 90%
DAGLB inhibition by spectral counting (DAGLB [3]): confirmed inhibition of DAGLB
IC50 (DAGLB [5]): 11 nM
time to complete inhibition of DAGLB (DAGLB [6]; 5 mg/kg): within the first hour
duration / time-course of DAGLB inhibition (DAGLB [6]; 5 mg/kg, about 1 to 16 hours): shorter compared with KT109
dose (as low as) giving complete inactivation of DAGLB in peritoneal macrophages (DAGLB [6]; about 4 hours, doses about 10 to about 0.1 mg/kg): 0.5 mg/kg
activity against DAGLB (DAGLB [7]): maintaining potency against DAGLB
Structure (SMILES): COc1ccccc1-c1ccc(-c2cn(C(=O)N3CCCCC3Cc3ccccc3)nn2)cc1 (centres unmarked) [KT172]
activity against DAGLA (DAGLA): more potent against the alpha isoform in comparison with KT109
off-target activity / selectivity against other serine hydrolases [1]: mild activity against this off-target enzyme at higher concentrations; also recorded: slightly increased activity against MGLL
change in 2-AG (peritoneal macrophages): Dramatic decreases in 2-AG
change in SAG (peritoneal macrophages): significant increases in SAG
change in cellular AA, PGE2 and PGD2 (peritoneal macrophages): significant decreases in cellular AA levels and a corresponding reduction in PGE2 and PGD2
off-target activities [4]: carboxylesterases (Ces3 and Ces2g)
